Experimental data: US10104890B2, “Compositions and methods for controlling pesticide resistant pests” (Rothamsted Research Limited, priority 2011, dated 2018)

Tested on: Myzus persicae clone 5191A
Type: in vivo
Details: for LC50 (lethal concentration to kill 50% of the population): LC50 of imidacloprid, alone or after 5 h pre-treatment with 0.25 μL of 1 g L−1 synergist, apterous aphids, topical, scored 72 h after treatment, probit analysis; for SF = synergism factor (LC50 unsynergised/LC50 synergised): with imidacloprid, 1 g L−1 synergist, 5 h pre-treatment, clone 5191A
Description: Aphids for bioassays were reared on Chinese cabbage leaves (Brassica rapa L. var. Pekinensis c.v Wong Bok) (Brassicaceae) in small plastic box-cages (Blackman boxes) (Stewart Plastics Ltd, Surrey, UK) maintained at 18±2° C. with a 16 h light: 8 h dark photoperiod. Each box contained two adult aphids placed on a leaf and left for 5 days to produce nymphs. After the 5th day the adults were removed and their esterase levels determined to ensure that no contamination or loss of esterase expression (reversion) among the different clones had occurred during the rearing process. After approximately 13-15 days adults were used for bioassays.
Clone 5191A was collected from tobacco in Greece in 2007, and established from a single parthenogenetic female.
Apterous aphids were transferred from Blackman boxes (section 2.1.1) to the abaxial surface of Chinese cabbage leaf discs (approximately 10 adults per leaf disc) held on 1% agar in plastic containers (4 cm in diameter, A.W. Gregory & Co Limited, Kent, UK). The upper edge of each container was coated with Fluon® (Whitford Plastics, Cheshire, UK) to prevent aphid escape from the leaf surface. Netted lids were added to ensure apterous aphids could not escape. After allowing 30 min for the aphids to settle, each was dosed with 0.25 μL of 1 g L^−1 synergist dissolved in acetone or acetone only using a Burkard microapplicator (Burkhard Scientific, Middx, UK). Synergist concentrations chosen conferred no significant mortality compared to the acetone control treatment in preliminary bioassays. Five hours later, aphids were further treated with 0.25 μL imidacloprid in acetone at a range of concentrations, at least 3 replicates per concentration per bioassay. Controls were treated with 0.25 μL of acetone or 1 g L^−1 synergist in acetone and after 5 h with a further 0.25 μL of acetone.
Treated aphids were kept at 18±2° C. and 16 h light: 8 h dark photoperiod and scored 72 h after treatment. Aphids incapable of co-ordinated movement (after gentle touching with a paint brush if necessary) were scored as dead. All bioassays were performed a minimum of three times.
Pooled raw data from at least three separate bioassays were analysed by probit analysis using the statistical programme PC Polo Plus (LeOra, Software, Berkeley, USA). Polo Plus programme calculated the concentrations required to kill 50% of the population (LC50), 95% confidence limits (CL95%), slopes with standard errors (SE), chi-square (χ2) and degrees of freedom (df). Natural response was also estimated when control mortality occurred.

In the case of O=[N+]([O-])NC1=NCCN1Cc1ccc(Cl)nc1 [imidacloprid], the “LC50 (lethal concentration to kill 50% of the population)” value is reported as 90.4 ppm.
With CC#CCOCc1cc2c(cc1CCC)OCO2 [EN 126] the “LC50 (lethal concentration to kill 50% of the population)” value was 0.31 ppm and the “SF = synergism factor (LC50 unsynergised/LC50 synergised)” value (“SF = synergism factor” for short) was 292.
For CCCCOCCOCCOCc1cc2c(cc1CCC)CCC2 [EN 14-5], the “LC50 (lethal concentration to kill 50% of the population)” value was 41.5 ppm and the “SF = synergism factor” value was 2.17.
For CC#CCOc1cc2c(cc1CCC)CCO2 [EN 16-17], the “LC50 (lethal concentration to kill 50% of the population)” value was 7.11 ppm and the “SF = synergism factor” value was 12.7.
In the case of CCCCOCCOCCOCc1cc2c(cc1CCC)CCO2 [EN 16-5], the “LC50 (lethal concentration to kill 50% of the population)” value is reported as 12.2 ppm and the “SF = synergism factor” value is reported as 7.41.
For CC#COCc1ccc2c(c1)CCO2 [EN 16-18], the “LC50 (lethal concentration to kill 50% of the population)” value was 18.4 ppm and the “SF = synergism factor” value was 4.91.
CC#CCO[C@H](C)c1ccc(OC)c(OC)c1 [EN 25-10] was tested, and the “LC50 (lethal concentration to kill 50% of the population)” value was 4.88 ppm and the “SF = synergism factor” value was 18.5.
For CC#CCOc1ccc2c(c1)OCO2 [EN 163], the “LC50 (lethal concentration to kill 50% of the population)” value was 2.98 ppm and the “SF = synergism factor” value was 30.3.
With CCCCOCCOCCOCc1cc2c(cc1CCC)OCO2 [PBO, piperonyl butoxide] the “LC50 (lethal concentration to kill 50% of the population)” value was 6.22 ppm and the “SF = synergism factor” value was 14.5.
For CCCCCCCCCCCCc1ccc2c(c1)OCO2 [EN 129], the “LC50 (lethal concentration to kill 50% of the population)” value was 28.4 ppm and the “SF = synergism factor” value was 3.18.
For CC#CCOc1cc2c(cc1CCC)OCO2 [EN 164], the “LC50 (lethal concentration to kill 50% of the population)” value was 1.25 ppm and the “SF = synergism factor” value was 72.4.
